From article PMC6959561, “Expression of acyl-CoA-binding protein 5 from Rhodnius prolixus and its inhibition by RNA interference” (PLoS ONE, 2020) come the findings set out here.

The structures appear in SMILES notation.

The target in the assay is T1, RpACBP-5 (acyl-CoA-binding protein 5) (Rhodnius prolixus, UniProt M4WG04).
T1 construct: recombinant RpACBP-5 expressed in E. coli BL21 (DE3) (GenBank KC417418; 261 bp)
The experiment in a line: isothermal titration calorimetry (VP-ITC, […]°C, pH […]). For orientation: In ITC the heat of successive injections is recorded.

T1 sequence (M4WG04 entry or part of it): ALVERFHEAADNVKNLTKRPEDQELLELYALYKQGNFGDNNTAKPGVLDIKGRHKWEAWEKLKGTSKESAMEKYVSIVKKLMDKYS

Regarding `CCCCCCCCCCCC(=O)SCCNC(=O)CCNC(=O)[C@H](O)C(C)(C)COP(=O)(O)OP(=O)(O)OC[C@H]1O[C@@H](n2cnc3c(N)ncnc32)[C@H](O)[C@@H]1OP(=O)(O)O` [lauroyl-CoA], binding was put at a Kd of 399 ± 266 nM.
